IC50 data for 8 molecules are collected here from ChEMBL document CHEMBL6120939, “STATs, promising targets for the treatment of autoimmune and inflammatory diseases” (Eur J Med Chem, 2024).

For experiment [1], the target named is Signal transducer and activator of transcription 3 (Homo sapiens, UniProt P40763). As to the kind of experiment: Inhibition of STAT3 phosphorylation in human HepG2 cells by immuno-fluorescence analysis. The experiment is classed as cell-based.
Experiment [2] has as its system Mus musculus. As to the kind of experiment: Anti-asthmatic activity in OVA-induced ip dosed female BALB/c mouse model assessed as reduction in pulmonary IL-13 level administered for 30 min measured after 21 days by ELISA. The class given is functional, organism-based. A general note: In an ELISA, binding on a coated surface is turned into a signal by an enzyme label.

Experiment [3] in a line: Inhibition of C57BL/6 mouse Th17 cell differentiation from CD4+ T cells assessed as reduction in IL-17a mRNA expression incubated for 96 hrs by qPCR analysis. The experiment is classed as functional, cell-based. Particulars: C57BL/6, Th17, 96 h. (In qPCR the cycle at which signal appears reflects the starting amount.)
In a further experiment the test system is Rattus norvegicus. As to the kind of experiment: Antiinflammatory activity against TNBS-induced colitis in Sprague-Dawley rat model assessed as reduction in colon TNFalpha level at 1 mg/kg, po administered for 5 days by ELISA. The experiment is classed as functional, organism-based. The conditions noted are these: 120 h.
Experiment [4] relates to Mus musculus. In words: Anti-inflammatory activity against DSS-induced acute colitis C57BL/6J mouse model assessed as reduction in IL-1beta level in colon at 10 to 20 mg/kg, po measured for 7 days by ELISA analysis. The class given is functional, organism-based. The conditions noted are these: 168 h.

Signal transducer and activator of transcription 3, sequence (P40763 whole entry): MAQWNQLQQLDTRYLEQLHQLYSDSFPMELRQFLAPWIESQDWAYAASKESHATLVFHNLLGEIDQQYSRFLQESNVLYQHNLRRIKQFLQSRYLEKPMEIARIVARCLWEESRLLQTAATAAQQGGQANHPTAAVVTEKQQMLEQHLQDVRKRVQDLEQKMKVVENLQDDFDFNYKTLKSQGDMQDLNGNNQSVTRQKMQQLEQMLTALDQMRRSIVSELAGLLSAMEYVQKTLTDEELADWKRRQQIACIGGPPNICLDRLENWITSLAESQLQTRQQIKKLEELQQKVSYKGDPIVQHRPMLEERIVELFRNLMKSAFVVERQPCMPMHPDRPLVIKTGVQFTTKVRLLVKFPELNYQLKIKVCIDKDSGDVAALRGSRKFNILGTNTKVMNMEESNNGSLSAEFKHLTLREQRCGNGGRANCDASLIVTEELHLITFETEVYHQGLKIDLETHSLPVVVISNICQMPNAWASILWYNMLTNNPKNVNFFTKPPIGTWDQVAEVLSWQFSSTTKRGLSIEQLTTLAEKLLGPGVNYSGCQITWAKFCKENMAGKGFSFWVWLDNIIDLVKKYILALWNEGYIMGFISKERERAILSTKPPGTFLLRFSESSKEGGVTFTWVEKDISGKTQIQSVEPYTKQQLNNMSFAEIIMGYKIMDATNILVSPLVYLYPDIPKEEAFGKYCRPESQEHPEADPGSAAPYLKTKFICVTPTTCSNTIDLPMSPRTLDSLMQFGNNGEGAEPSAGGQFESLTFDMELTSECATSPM

One may read the IC50 as the point on the concentration scale where inhibition reaches its midpoint. As to `CC1CC(=O)c2c(ccc3c2C(=O)c2cccc(O)c2C3=O)C1` (stereo not drawn), half-maximal inhibition in experiment [1] (IC50) required 12200 nM.
Regarding `NC(=O)c1cnc(NCCc2ccc(O)c(Cl)c2)nc1NCc1ccccc1`, the IC50 in the experiment on Mus musculus [2] was found to be 21 nM.
For `NS(=O)(=O)c1cccc2c1C(=O)c1cccc(O)c1C2=O`, the IC50 in experiment [3] worked out at 180 nM.
In the case of `Cc1ccc(S(=O)(=O)OCC(=O)Nc2ccc(C(=O)O)c(O)c2)cc1`, the IC50 in the experiment with Rattus norvegicus is 86000 nM.
Consider `NC(=O)c1cnc(Nc2ccc(N3CCOCC3)cc2)nc1NCc1c(F)ccc(F)c1F`, for which the IC50 in the experiment on Mus musculus [2] turned out to be 0.7 nM.
As to `CN(C)C(=O)Oc1cccc2c1C(=O)c1cccc(S(N)(=O)=O)c1C2=O`, the IC50 in experiment [3] is 220 nM.
On to `COc1ccc(S(=O)(=O)Nc2cc(-c3c(O)ccc4ccccc34)c(O)c3ccccc23)cc1` [C-188-9], for which, in the experiment with Rattus norvegicus, the 50% inhibitory concentration (IC50) worked out at 4000 nM.
For the molecule `Cc1cc(OCCCS(C)(=O)=O)cc(C)c1-c1cccc(COc2ccc3c(c2)OC[C@H]3CC(=O)O)c1` [FASIGLIFAM], the IC50 in the experiment with Mus musculus [4] was found to be 4740 nM.
